Where no end group is shown, it is not given here.
Tests used:
HA-tagged PA of FluB = target: T1, HA-tagged PA of FluB (Influenza B virus, UniProt Q9QLI9); assay: biochemical; format: binding
T1 construct: upstream of the initiation codon and antisense primers with a deleted stop codon; made in house; host or cells: human 293T cells, transiently transfected; unpurified cell lysate

HA-tagged PA of FluA = HA-tagged PA of FluA (Influenza A virus, UniProt Q2VC91); assay: biochemical; format: binding

T1 sequence (Q9QLI9 whole entry): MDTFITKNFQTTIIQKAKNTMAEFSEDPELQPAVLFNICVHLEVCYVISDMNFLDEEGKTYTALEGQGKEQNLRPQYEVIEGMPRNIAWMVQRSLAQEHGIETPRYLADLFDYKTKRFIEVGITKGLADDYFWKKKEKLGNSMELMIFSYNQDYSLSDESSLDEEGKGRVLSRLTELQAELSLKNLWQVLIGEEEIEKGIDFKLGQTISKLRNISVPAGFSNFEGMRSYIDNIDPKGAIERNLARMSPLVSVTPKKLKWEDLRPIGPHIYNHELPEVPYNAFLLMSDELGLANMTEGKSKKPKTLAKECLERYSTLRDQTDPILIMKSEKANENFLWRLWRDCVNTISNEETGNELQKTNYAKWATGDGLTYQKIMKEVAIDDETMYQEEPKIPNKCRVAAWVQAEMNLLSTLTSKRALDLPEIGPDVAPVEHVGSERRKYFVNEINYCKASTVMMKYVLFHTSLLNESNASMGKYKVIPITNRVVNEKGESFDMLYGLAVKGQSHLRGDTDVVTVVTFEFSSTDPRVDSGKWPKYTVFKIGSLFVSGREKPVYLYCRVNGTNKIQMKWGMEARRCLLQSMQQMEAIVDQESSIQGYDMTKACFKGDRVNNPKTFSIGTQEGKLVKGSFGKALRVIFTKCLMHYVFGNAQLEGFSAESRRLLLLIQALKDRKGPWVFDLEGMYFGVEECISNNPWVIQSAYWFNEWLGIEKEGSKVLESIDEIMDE

| Compound | IC50 (HA-tagged PA of FluB) [nM] | IC50 (HA-tagged PA of FluA) [nM] |
| --- | --- | --- |
| MNINPYFLFIDVPIQ-NH2 [PB11-15 B] | 45 |  |
| CSCC[C@H](N)C(=O)N[C@@H](CC(=O)O)C(=O)N[C@H](C(=O)N[C@@H](CC(N)=O)C(=O)N1CCC[C@H]1C(=O)N[C@H](C(=O)N[C@@H](CC(C)C)C(=O)N[C@@H](CC(C)C)C(=O)N[C@@H](Cc1ccccc1)C(=O)N[C@@H](CC(C)C)C(=O)N[C@@H](CCCCN)C(=O)N[C@H](C(=O)N1CCC[C@H]1C(=O)N[C@@H](C)C(=O)N[C@@H](CCC(N)=O)C(N)=O)C(C)C)[C@@H](C)O)C(C)C [PB11-15 A] | > 3000 |  |
| MDVNPTLLFLK-NH2 [1–11] |  | 900 |
